The text below walks through data of patent publication US11566057B2, “Long-acting co-agonists of the glucagon and GLP-1 receptors” (Merck Sharp & Dohme Corp., priority 2017, dated 2023).

Where two headings read alike, the source gives them in different places. Numbered stars: 1 amine (or outer) side, 2 acyl side, 3 side chain; on linkers, the order of the positions; unused ones are H or OH. Square brackets hold non-standard residues; d marks the D form. Side chains are listed from the residue outwards. Peptide text beside a SMILES is read from it. * marks the point of attachment. C20 diacid = O=C(O)CCCCCCCCCCCCCCCCCCC(=O)*; C18 diacid = O=C(O)CCCCCCCCCCCCCCCCC(=O)*; γGlu = O=C(O)[C@H](CCC(=O)[*:2])N[*:1]; Met(O2) = CS(=O)(=O)CC[C@H](N)C(=O)O; αMeD = C[C@](N)(CC(=O)O)C(=O)O; αMeS = C[C@](N)(CO)C(=O)O; AEEA = NCCOCCOCC(=O)O; Aib = CC(C)(N)C(=O)O Where only a bound is given, the exact number is not on record here.

The target of test [1] is T1, human GCGR (Homo sapiens, UniProt P47871).
T1 construct: expressed in transfected cells; growth medium holds Blasticidin and Hygromycin
In words: cAMP activity assay at the Glucagon receptor (GCGR). Type of test: cell-based. Conditions: for hGCGR/hGLP1R (hTone): ratio of GCGR EC50 to GLP1R EC50. An outline of the steps:
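Peptides serially diluted from DMSO (10 points) and added to frozen-stock cells bearing human GLP1R (10,000 cells/well) or GCGR (30,000 cells/well), 1 h at RT, dark. EC50 by four-parameter logistic fit of HitHunter cAMPXS luminescence, read following overnight RT incubation.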

The target of test [2] is T2, human GLP1R (Homo sapiens, UniProt P43220).
T2 construct: expressed in transfected cells; growth medium holds Blasticidin and Hygromycin
Nature of the test: cAMP activity assay at the GLP-1 receptor (GLP1R). Type of test: cell-based. As for the experimental part:
Activity of the peptides at the Glucagon receptor (GCGR) and GLP-1 receptor (GLP1R) was measured in a cAMP activity assay.
GCG/GLP-1 receptor co-agonist peptides were dissolved in 100% DMSO (dimethyl sulfoxide) and serially diluted to generate 10 point titrations. The peptide solutions were then transferred into 384-well assay plates (150 nL/well). Assay ready frozen cells expressing human GLP1R or human GCGR were suspended in growth media consisting of DMEM medium (GIBCO®), 10% FBS (GIBCO®), 1×NEAA(GIBCO®), 1×P/S (GIBCO®), 10 ug/mL Blasticidin (GIBCO®) and 200 μg/mL Hygromycin (GIBCO®). […] The cell suspensions (15 μL) were then added to the assay plates containing the peptide solutions (30,000 cells/well for human GCGR; 10,000 cells/well for human GLP1R). The cells were incubated for 1 hour at room temperature in the dark. Production of cAMP was determined using HitHunter™ cAMPXS kits (DiscoverX) following manufacturer protocol. The plates were incubated for overnight at room temperature in the dark. Luminescence was measured using an EnVision Multilabel plate reader (Perkin Elmer). Native GLP-1 and Glucagon (Bachem) are used as control peptides. EC50 values were calculated using uses a 4 parameter logistic fit based on the Levenberg-Marquardt algorithm.

The mark [3] stands for this setting: cells expressing human GCGR, cAMP production, buffer with or without 20% human serum (not stated which), read-out: GCGR EC50 human.
Setting [4] is: summary statement: EC50 at each of the glucagon and GLP-1 receptors, read-out: EC50 at the glucagon receptor.
Where [5] appears, read: summary statement: EC50 at each of the glucagon and GLP-1 receptors, read-out: EC50 at the GLP-1 receptor.
Setting [6] is: cells expressing human GLP1R, cAMP production, buffer with or without 20% human serum (not stated which), read-out: GLP1R EC50 human.

T2 sequence (P43220 24-463): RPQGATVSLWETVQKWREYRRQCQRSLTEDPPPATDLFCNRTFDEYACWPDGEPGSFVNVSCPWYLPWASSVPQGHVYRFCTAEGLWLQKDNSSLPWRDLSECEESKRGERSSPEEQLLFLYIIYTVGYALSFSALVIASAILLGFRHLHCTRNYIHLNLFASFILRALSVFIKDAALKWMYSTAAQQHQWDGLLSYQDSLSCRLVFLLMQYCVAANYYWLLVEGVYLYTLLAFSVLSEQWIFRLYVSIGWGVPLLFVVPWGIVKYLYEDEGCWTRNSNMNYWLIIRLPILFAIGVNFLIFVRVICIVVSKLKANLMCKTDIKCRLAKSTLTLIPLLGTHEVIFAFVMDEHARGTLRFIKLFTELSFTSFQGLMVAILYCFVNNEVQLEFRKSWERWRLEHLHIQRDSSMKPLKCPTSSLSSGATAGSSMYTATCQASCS
T1 sequence (P47871 26-477): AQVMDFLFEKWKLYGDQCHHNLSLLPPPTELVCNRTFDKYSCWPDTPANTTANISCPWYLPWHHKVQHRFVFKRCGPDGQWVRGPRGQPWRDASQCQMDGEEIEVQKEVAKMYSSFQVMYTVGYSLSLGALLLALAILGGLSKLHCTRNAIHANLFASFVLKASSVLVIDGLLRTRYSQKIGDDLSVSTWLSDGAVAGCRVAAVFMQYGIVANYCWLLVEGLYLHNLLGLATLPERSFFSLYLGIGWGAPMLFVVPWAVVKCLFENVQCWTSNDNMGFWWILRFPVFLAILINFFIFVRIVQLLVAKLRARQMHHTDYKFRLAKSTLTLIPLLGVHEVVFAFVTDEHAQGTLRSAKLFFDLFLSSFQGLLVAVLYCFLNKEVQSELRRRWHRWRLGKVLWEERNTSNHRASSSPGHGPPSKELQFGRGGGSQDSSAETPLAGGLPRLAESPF

As to `CC(C)C[C@H](NC(=O)[C@H](Cc1c[nH]c2ccccc12)NC(=O)[C@H](CCC(N)=O)NC(=O)[C@@H](NC(=O)[C@H](Cc1ccccc1)NC(=O)[C@H](CC(=O)O)NC(=O)[C@H](CCCCNC(=O)COCCOCCNC(=O)COCCOCCNC(=O)CC[C@H](NC(=O)CCCCCCCCCCCCCCCCCCC(=O)O)C(=O)O)NC(=O)[C@H](C)NC(=O)[C@H](C)NC(=O)[C@H](CCCNC(=N)N)NC(=O)C(C)(C)NC(=O)[C@H](CC(=O)O)NC(=O)[C@H](CC(C)C)NC(=O)[C@H](Cc1ccc(O)cc1)NC(=O)[C@H](CCCCN)NC(=O)[C@H](CO)NC(=O)[C@H](Cc1ccc(O)cc1)NC(=O)[C@H](CC(=O)O)NC(=O)[C@H](CO)NC(=O)[C@@H](NC(=O)[C@H](Cc1ccccc1)NC(=O)[C@@H](NC(=O)CNC(=O)[C@H](CCC(N)=O)NC(=O)[C@](C)(CO)NC(=O)[C@@H](N)Cc1c[nH]cn1)[C@@H](C)O)[C@@H](C)O)C(C)C)C(=O)N[C@@H](CCS(C)(=O)=O)C(=O)N[C@@H](CC(=O)O)C(=O)N[C@H](C(N)=O)[C@@H](C)O` [TP592] (H-H[αMeS]QGTFTSDYSKYLD[Aib]RAAK([AEEA-AEEA-γGlu-C20 diacid])DFVQWL[Met(O2)]DT-NH2; N-terminus assumed), the EC50 (usually the concentration giving half of the maximal effect) in test [1] (setting [3]) is 3.39 nM; in test [1] (setting [4]), < 5 nM; in test [2] (setting [5]), < 5 nM. Moreover, the “hGCGR/hGLP1R (hTone)” value in test [1] stood at 1.4.

As to `CC(C)C[C@H](NC(=O)[C@H](Cc1c[nH]c2ccccc12)NC(=O)[C@H](CCC(N)=O)NC(=O)[C@@H](NC(=O)[C@H](Cc1ccccc1)NC(=O)[C@H](CC(=O)O)NC(=O)[C@H](CCCCNC(=O)COCCOCCNC(=O)COCCOCCNC(=O)CC[C@H](NC(=O)CCCCCCCCCCCCCCCCCCC(=O)O)C(=O)O)NC(=O)[C@H](C)NC(=O)[C@H](C)NC(=O)[C@H](CCCNC(=N)N)NC(=O)C(C)(C)NC(=O)[C@H](CC(=O)O)NC(=O)[C@H](CC(C)C)NC(=O)[C@H](Cc1ccc(O)cc1)NC(=O)[C@H](CCCCN)NC(=O)[C@H](CO)NC(=O)[C@H](Cc1ccc(O)cc1)NC(=O)[C@H](CC(=O)O)NC(=O)[C@H](CO)NC(=O)[C@@H](NC(=O)[C@H](Cc1ccccc1)NC(=O)[C@@H](NC(=O)CNC(=O)[C@H](CCC(N)=O)NC(=O)[C@](C)(CO)NC(=O)[C@@H](N)Cc1c[nH]cn1)[C@@H](C)O)[C@@H](C)O)C(C)C)C(=O)N[C@@H](CCS(C)(=O)=O)C(=O)N[C@@H](CC(=O)O)C(=O)N[C@H](C(N)=O)[C@@H](C)O` [TP593] (H-H[αMeS]QGTFTSDYSKYLD[Aib]RAAK([AEEA-AEEA-γGlu-C20 diacid])DFVQWL[Met(O2)]DT-NH2), the EC50 in test [1] (setting [3]) was 0.73 nM; in test [2] (setting [6]), 4.95 nM. Further, the “hGCGR/hGLP1R (hTone)” value in test [1] is recorded as <0.15.

Consider `CC(C)C[C@H](NC(=O)[C@H](Cc1ccc(O)cc1)NC(=O)[C@H](CCCCN)NC(=O)[C@H](CO)NC(=O)[C@H](Cc1ccc(O)cc1)NC(=O)[C@H](CC(=O)O)NC(=O)[C@H](CO)NC(=O)[C@@H](NC(=O)[C@H](Cc1ccccc1)NC(=O)[C@@H](NC(=O)CNC(=O)[C@H](CCC(N)=O)NC(=O)C(C)(C)NC(=O)[C@@H](N)Cc1c[nH]cn1)[C@@H](C)O)[C@@H](C)O)C(=O)N[C@@H](CC(=O)O)C(=O)N[C@@H](C)C(=O)N[C@@H](CCCNC(=N)N)C(=O)N[C@@H](C)C(=O)N[C@@H](C)C(=O)N[C@@H](CCCCNC(=O)COCCOCCNC(=O)COCCOCCNC(=O)CC[C@H](NC(=O)CCCCCCCCCCCCCCCCCCC(=O)O)C(=O)O)C(=O)N[C@@](C)(CC(=O)O)C(=O)N[C@@H](Cc1ccccc1)C(=O)N[C@H](C(=O)N[C@@H](CCC(N)=O)C(=O)N[C@@H](Cc1c[nH]c2ccccc12)C(=O)N[C@@H](CC(C)C)C(=O)N[C@@H](CCS(C)(=O)=O)C(=O)N[C@@H](CC(=O)O)C(=O)N[C@H](C(N)=O)[C@@H](C)O)C(C)C` [TP594] (H-H[Aib]QGTFTSDYSKYLDARAAK([AEEA-AEEA-γGlu-C20 diacid])[αMeD]FVQWL[Met(O2)]DT-NH2; N-terminus assumed), for which the results for the EC50 in test [1] (setting [3]), in test [1] (setting [4]) and in test [2] (setting [5]) were 4.95 nM, < 5 nM and < 5 nM, respectively. Also, in test [1], the “hGCGR/hGLP1R (hTone)” value was 1.9.

Turning to `CC(C)C[C@H](NC(=O)[C@H](Cc1ccc(O)cc1)NC(=O)[C@H](CCCCN)NC(=O)[C@H](CO)NC(=O)[C@H](Cc1ccc(O)cc1)NC(=O)[C@H](CC(=O)O)NC(=O)[C@H](CO)NC(=O)[C@H](Cc1ccccc1)NC(=O)[C@H](Cc1ccccc1)NC(=O)[C@@H](NC(=O)CNC(=O)[C@H](CCC(N)=O)NC(=O)C(C)(C)NC(=O)[C@@H](N)Cc1c[nH]cn1)[C@@H](C)O)C(=O)N[C@@H](CC(=O)O)C(=O)N[C@@H](C)C(=O)N[C@@H](CCCNC(=N)N)C(=O)N[C@@H](C)C(=O)N[C@@H](C)C(=O)N[C@@H](CCCCNC(=O)COCCOCCNC(=O)COCCOCCNC(=O)CC[C@H](NC(=O)CCCCCCCCCCCCCCCCC(=O)O)C(=O)O)C(=O)N[C@@H](CC(=O)O)C(=O)N[C@@H](Cc1ccccc1)C(=O)N[C@H](C(=O)N[C@@H](CCC(N)=O)C(=O)N[C@@H](Cc1c[nH]c2ccccc12)C(=O)N[C@@H](CC(C)C)C(=O)N[C@@H](CCS(C)(=O)=O)C(=O)N[C@@H](CC(=O)O)C(=O)N[C@H](C(N)=O)[C@@H](C)O)C(C)C` [TP595] (H-H[Aib]QGTFFSDYSKYLDARAAK([AEEA-AEEA-γGlu-C18 diacid])DFVQWL[Met(O2)]DT-NH2; N-terminus assumed), the “hGCGR/hGLP1R (hTone)” value in test [1] is on record as 0.2. Moreover, the results for the EC50 in test [1] (setting [4]), in test [2] (setting [6]) and in test [2] (setting [5]) were < 5 nM, > 20 nM and < 5 nM, respectively.

Take `CC(C)C[C@H](NC(=O)[C@H](Cc1ccc(O)cc1)NC(=O)[C@H](CCCCN)NC(=O)[C@H](CO)NC(=O)[C@H](Cc1ccc(O)cc1)NC(=O)[C@H](CC(=O)O)NC(=O)[C@H](CO)NC(=O)[C@H](CC(C)C)NC(=O)[C@H](Cc1ccccc1)NC(=O)[C@@H](NC(=O)CNC(=O)[C@H](CCC(N)=O)NC(=O)C(C)(C)NC(=O)[C@@H](N)Cc1c[nH]cn1)[C@@H](C)O)C(=O)N[C@@H](CC(=O)O)C(=O)N[C@@H](C)C(=O)N[C@@H](CCCNC(=N)N)C(=O)N[C@@H](C)C(=O)N[C@@H](C)C(=O)N[C@@H](CCCCNC(=O)COCCOCCNC(=O)COCCOCCNC(=O)CC[C@H](NC(=O)CCCCCCCCCCCCCCCCC(=O)O)C(=O)O)C(=O)N[C@@H](CC(=O)O)C(=O)N[C@@H](Cc1ccccc1)C(=O)N[C@H](C(=O)N[C@@H](CCC(N)=O)C(=O)N[C@@H](Cc1c[nH]c2ccccc12)C(=O)N[C@@H](CC(C)C)C(=O)N[C@@H](CCS(C)(=O)=O)C(=O)N[C@@H](CC(=O)O)C(=O)N[C@H](C(N)=O)[C@@H](C)O)C(C)C` [TP596] (H-H[Aib]QGTFLSDYSKYLDARAAK([AEEA-AEEA-γGlu-C18 diacid])DFVQWL[Met(O2)]DT-NH2; N-terminus assumed): the EC50 in test [1] (setting [3]) was 0.35 nM; in test [1] (setting [4]), < 5 nM; in test [2] (setting [6]), > 20 nM; in test [2] (setting [5]), < 5 nM. For the same compound, the “hGCGR/hGLP1R (hTone)” value in test [1] is given as 0.2.

Regarding `CC(C)C[C@H](NC(=O)[C@H](C)NC(=O)[C@H](CC(=O)O)NC(=O)[C@H](CC(C)C)NC(=O)[C@H](Cc1ccc(O)cc1)NC(=O)[C@H](CCCCN)NC(=O)[C@H](CO)NC(=O)[C@H](Cc1ccc(O)cc1)NC(=O)[C@H](CC(=O)O)NC(=O)[C@H](CO)NC(=O)[C@@H](NC(=O)[C@H](Cc1ccccc1)NC(=O)[C@@H](NC(=O)CNC(=O)[C@H](CCC(N)=O)NC(=O)C(C)(C)NC(=O)[C@@H](N)Cc1c[nH]cn1)[C@@H](C)O)[C@@H](C)O)C(=O)N[C@@H](C)C(=O)N[C@@H](C)C(=O)N[C@@H](CCCCNC(=O)COCCOCCNC(=O)COCCOCCNC(=O)CC[C@H](NC(=O)CCCCCCCCCCCCCCCCC(=O)O)C(=O)O)C(=O)N[C@@H](CC(=O)O)C(=O)N[C@@H](Cc1ccccc1)C(=O)N[C@H](C(=O)N[C@@H](CCC(N)=O)C(=O)N[C@@H](Cc1c[nH]c2ccccc12)C(=O)N[C@@H](CC(C)C)C(=O)N[C@@H](CCS(C)(=O)=O)C(=O)N[C@@H](CC(=O)O)C(=O)N[C@H](C(N)=O)[C@@H](C)O)C(C)C` [TP599] (H-H[Aib]QGTFTSDYSKYLDALAAK([AEEA-AEEA-γGlu-C18 diacid])DFVQWL[Met(O2)]DT-NH2; N-terminus assumed), the “hGCGR/hGLP1R (hTone)” value in test [1] was determined as 1.6. In addition, the EC50 in test [1] (setting [4]) and in test [2] (setting [5]) was < 5 nM each time.
